From the Kinase Knowledgebase extract (Sharma et al. 2016)

Target: MAPK14 (UniProt Q16539)
Test: Inhibition of MAPK14 Kinase Activity

Chain of MAPK14 (Q16539 whole entry, looked up): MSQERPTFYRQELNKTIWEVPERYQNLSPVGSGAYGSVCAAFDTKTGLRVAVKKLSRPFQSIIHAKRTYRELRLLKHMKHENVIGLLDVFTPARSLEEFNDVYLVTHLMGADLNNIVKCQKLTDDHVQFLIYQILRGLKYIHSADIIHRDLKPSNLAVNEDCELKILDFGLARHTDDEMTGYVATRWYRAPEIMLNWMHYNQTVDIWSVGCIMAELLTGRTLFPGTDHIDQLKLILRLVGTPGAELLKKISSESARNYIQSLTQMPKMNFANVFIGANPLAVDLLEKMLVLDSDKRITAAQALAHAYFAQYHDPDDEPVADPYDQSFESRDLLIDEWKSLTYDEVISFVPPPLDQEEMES

Q: Which IC50 does the source give for Nc1ccc2c(-c3c(-c4ccccn4)nn4c3CCC4)ccnc2c1 here?
A: 2570 nM

Q: With CN(C)CCNC(=O)Nc1ccc2c(-c3c(-c4ccccn4)nn4c3CCC4)ccnc2c1 as the molecule, how does the IC50 read?
A: 867 nM

Q: For COC(=O)Nc1ccc2c(-c3c(-c4ccccn4)nn4c3CCC4)ccnc2c1, which IC50 is on record?
A: 526 nM

Q: How did the IC50 turn out when CN(C)CCC(=O)Nc1ccc2c(-c3c(-c4ccccn4)nn4c3CCC4)ccnc2c1 was run?
A: 2460 nM

Q: How did the IC50 turn out when O=C(NCCO)Nc1ccc2c(-c3c(-c4ccccn4)nn4c3CCC4)ccnc2c1 was run?
A: 1080 nM

Q: How did the IC50 turn out when COCCNC(=O)Nc1ccc2c(-c3c(-c4ccccn4)nn4c3CCC4)ccnc2c1 was run?
A: 1050 nM

Q: How did the IC50 turn out when CN(C)CC(=O)Nc1ccc2c(-c3c(-c4ccccn4)nn4c3CCC4)ccnc2c1 was run?
A: 1460 nM

Q: O=C1OCCN1c1ccc2c(-c3c(-c4ccccn4)nn4c3CCC4)ccnc2c1 was tested. Which IC50 did it give?
A: 2060 nM

Q: For O=C(Nc1ccc2c(-c3c(-c4ccccn4)nn4c3CCC4)ccnc2c1)OCCO, which IC50 is on record?
A: 616 nM

Q: Which IC50 does the source give for CC(=O)Nc1ccc2c(-c3c(-c4ccccn4)nn4c3CCC4)ccnc2c1 here?
A: 1340 nM

Q: With O=C(Nc1ccc2c(-c3c(-c4ccccn4)nn4c3CCC4)ccnc2c1)Nc1ccc2c(-c3c(-c4ccccn4)nn4c3CCC4)ccnc2c1 as the molecule, how does the IC50 read?
A: 4640 nM
